Assay: in vitro
Conditions: human, hela cells, % viability

| SMILES | viability at 28.5 h, 10 µM [%] | viability at 28.5 h, 10 µM (bulk resorufin, single well) [%] |
| --- | --- | --- |
| Cc1nc(COc2ccc(F)cc2)sc1C(=O)O [CBK305074] | 98 | – |
| CCOc1ccc2c(c1)CN(CCCc1nc(C)no1)CC2 [CBK305076] | 99.2 | – |
| COc1ccc(OCc2ncc(C(C)(C)C)o2)c(C(C)=O)c1 [CBK305079] | 115 | – |
| Cc1nc(C)n(CC2CCCN(Cc3ccc(C#N)cc3)C2)n1 (centres unmarked) [CBK305082] | 83.1 | – |
| Cc1nc(C)n(CC2CCCN(Cc3ccccc3C#N)C2)n1 (centres unmarked) [CBK305085] | 98.4 | – |
| Cc1cc(CN2CCC(N(C)Cc3nnc(C)n3C)C2)no1 (centres unmarked) [CBK305088] | 96.6 | – |
| Cc1csc(CNCc2c(C(C)C)nn(C)c2N(C)C)n1 [CBK305089] | 83.7 | – |
| CCc1nc(CN2CCOC(c3ccc(F)cc3)C2)cs1 (centres unmarked) [CBK305090] | 89.7 | – |
| Cc1ccc(OCC(=O)N2CCCCC2c2nccs2)cc1 (centres unmarked) [CBK305091] | 88.7 | – |
| CN(Cc1cnn(C)c1)C(=O)C1CCCN1Cc1ccccn1 (centres unmarked) [CBK305092] | 96 | – |
| CC(Cn1cccn1)NCC(=O)N(C)C1(C#N)CCCCC1 (centres unmarked) [CBK305096] | 91.5 | – |
| Cc1cnn(C2CN(CC(=O)N3CCc4sccc4C3)C2)c1 [CBK305097] | 86.8 | – |
| COCCN1CCCC(NC(C)c2ccc(OC)c(F)c2)C1 (centres unmarked) [CBK305099] | 80.9 | – |
| CS(=O)(=O)NC1CCN(C2CCc3c(F)cc(F)cc32)C1 (centres unmarked) [CBK305101] | 90.1 | – |
| CCC(C)CS(=O)(=O)c1nc(C)c(C)n1CC1CCCO1 (centres unmarked) [CBK305107] | 114 | – |
| CCN1CCOC(CNCc2ccc(OCC(N)=O)cc2)C1 (centres unmarked) [CBK305108] | 96.8 | – |
| CCOC(=O)c1cnn(C2CCCN(Cc3ccsc3)C2)c1 (centres unmarked) [CBK305112] | 94.9 | – |
| CCOC(=O)c1cnn(C2CCCN(Cc3cnnn3C)C2)c1 (centres unmarked) [CBK305122] | 98.5 | – |
| COCCn1cc(C(=O)N2CCN(C)CC2C)c2ccccc21 (centres unmarked) [CBK305123] | – | 102 |
| CCc1onc(C)c1C(=O)NCC1CCCCN1CC(C)C (centres unmarked) [CBK305124] | 106 | – |
| CCOC(=O)c1cnn(C2CCCN(Cc3cc[nH]n3)C2)c1 (centres unmarked) [CBK305125] | 87.4 | – |
| CC(=O)Nc1cccc(CN(C)C(CCO)c2ccccc2)c1 (centres unmarked) [CBK305127] | 95.8 | – |
| CC(C)(C)OC(=O)N1CCCC(NCc2ccccn2)CC1 (centres unmarked) [CBK305128] | 106 | – |
| CC(C)C(CNCc1ccc(F)c(Cl)c1)c1ccnn1C (centres unmarked) [CBK305130] | 82.9 | – |

| SMILES | viability at 28.5 h, 10 µM [%] | viability at 28.5 h, 10 µM (bulk resorufin, single well) [%] |
| --- | --- | --- |
| CCC(NC1CCc2nc(COC)nn2C1)c1ccccc1O (centres unmarked) [CBK305132] | 92.1 | – |
| COc1cc(OC)cc(C(=O)N(CCC#N)Cc2ccco2)c1 [CBK305133] | 96.3 | – |
| CCN(CC)C(=O)NC(C)c1cccc(S(=O)(=O)NC)c1 (centres unmarked) [CBK305134] | 94.4 | – |
| CC(=O)Nc1cccc(CN2CCCC2CC(O)c2ccccc2)c1 (centres unmarked) [CBK305136] | 104 | – |
| Cc1nc(S(=O)(=O)CCn2cccn2)n(C2CCCC2)c1C [CBK305138] | 89 | – |
| Cc1cc(NC(=O)CN2CCCC2CC(O)c2ccccc2)no1 (centres unmarked) [CBK305139] | 88.8 | – |
| O=C(c1cccc2ncccc12)N1CCN(CC2CCOC2)CC1 (centres unmarked) [CBK305140] | 94.3 | – |
| Cc1nc(S(=O)(=O)CCn2cccn2)n(CC2CCCO2)c1C (centres unmarked) [CBK305141] | 96.6 | – |
| CCn1ncc2c1CCCC2NC1CCN(c2ccccc2)C1=O (centres unmarked) [CBK305144] | 93.6 | – |
| O=C(NCCCN1CCCCC1)C1CC(=O)N(Cc2ccco2)C1 (centres unmarked) [CBK305145] | 93.1 | – |
| COc1ccc(C(=O)N(C)Cc2cnn(C)c2)cc1Br [CBK305149] | 84.8 | – |
| O=C(NCCN1CCCCC1)C1CC(=O)N(Cc2ccccc2)C1 (centres unmarked) [CBK305150] | 96.5 | – |
| CC1CN(CCNCc2cn(C)nc2-c2cccnc2)CC(C)O1 (centres unmarked) [CBK305151] | 110 | – |
| Cc1cc(C)nc(CCNCc2c(C(C)C)nn(C)c2N(C)C)n1 [CBK305159] | 112 | – |
| Cc1nc(CN2CCCC(NCc3ccc4ccccc4c3)C2)no1 (centres unmarked) [CBK305160] | 96.5 | – |
| Cc1c(C(=O)N(C)CC(C)C)nnn1-c1ccc2ncccc2c1 [CBK305161] | 102 | – |
| CC(=O)Nc1cccc(CN2CCCC2CN2CCCC2CO)c1 (centres unmarked) [CBK305163] | 98.9 | – |
| Cc1cccc(CN2CCC(N(C)Cc3nnc(C4CC4)n3C)C2)c1 (centres unmarked) [CBK305165] | 88.5 | – |
| Cc1cccn2cc(CCNC(=O)CN3Cc4ccccc4C3)nc12 [CBK305166] | 101 | – |
| OC(COCc1ccco1)CN1CCc2sccc2C1C1CC1 (centres unmarked) [CBK305167] | 119 | – |
| CCC1CN(C(C)=O)CCC1NCc1ccc(OCC(N)=O)cc1 (centres unmarked) [CBK305168] | 102 | – |
| CC1CCC(N(Cc2nnc(C(C)C)o2)CC2CCCO2)CC1 (centres unmarked) [CBK305169] | 89.7 | – |
| CN(C(=O)Cn1cccn1)c1nc2c(s1)CC(c1ccccc1)CC2 (centres unmarked) [CBK305173] | 102 | – |
| Cc1nn(C)c2ncc(S(=O)(=O)Nc3ccc(F)cn3)cc12 [CBK305175] | 95.1 | – |

| SMILES | viability at 28.5 h, 10 µM [%] | viability at 28.5 h, 10 µM (bulk resorufin, single well) [%] |
| --- | --- | --- |
| CCC(C)N(C)CCNC(=O)Nc1ccc(F)c(-n2nnnc2C)c1 (centres unmarked) [CBK305176] | 101 | – |
| Cn1cc(N2CCCC(NC(=O)Nc3cccc(C#N)c3)C2)cn1 (centres unmarked) [CBK305179] | 91.3 | – |
| c1cn2cnnc2c(N2CCc3sccc3C2)n1 [CBK305180] | 96.6 | – |
| Cc1ccccc1Nc1nc(N)nc(CN2CCOC3CCCC32)n1 (centres unmarked) [CBK305181] | 97.6 | – |
| Cn1cc(N2CCC(NC(=O)c3ccc(C#N)cc3)C2=O)cn1 (centres unmarked) [CBK305182] | 94 | – |
| COC(=O)c1ncn(CC(=O)N2CCCCCC2)n1 [CBK305184] | 98.9 | – |
| CCC(NC(=O)c1cn(CCOC)c2ccccc12)c1ccncc1 (centres unmarked) [CBK305186] | – | 95.7 |
| O=C(Cn1nc2n(c1=O)CCCCC2)NCC(O)c1ccc(F)cc1 (centres unmarked) [CBK305187] | 95.6 | – |
| CC(C)c1ccsc1C(=O)N1CCC2(C1)NC(=O)NC2=O (centres unmarked) [CBK305188] | 87.1 | – |
| c1csc(N2CCCN(c3nccn4cnnc34)CC2)n1 [CBK305190] | 82.4 | – |
| CC(C)Oc1ncc(C(=O)NCCCC(=O)O)cc1Cl [CBK305192] | 107 | – |
| Cn1ncc2c1CCCC2NC(=O)NCc1ccc(C#N)cc1F (centres unmarked) [CBK305193] | 85.4 | – |
| Cc1nn(C)c(C)c1CCC(=O)NCC(C)Oc1ccccc1F (centres unmarked) [CBK305194] | 94.3 | – |
| CC(=O)Nc1ccc(Cc2nc(C3CC3)no2)cc1 [CBK305197] | 92.1 | – |
| O=C(NCC1(O)CCSCC1)c1cc2ccccc2[nH]1 [CBK305199] | 94.9 | – |
| CCn1ncc2c1CCCC2NC1CCN(c2ccc(C#N)cc2)C1=O (centres unmarked) [CBK305200] | 96.8 | – |
| CC(C)c1noc(C(C)N2CCN(Cc3noc(C(C)(C)C)n3)CC2)n1 (centres unmarked) [CBK305202] | 84.4 | – |
| CC(C)(C)c1n[nH]c(C2CN(C(=O)CCc3cscn3)CCO2)n1 (centres unmarked) [CBK305205] | 89.7 | – |
| CCN(CC)C1CCN(C(=O)Nc2cc(NC(C)=O)ccc2F)C1 (centres unmarked) [CBK305207] | 88.7 | – |
| Cc1noc(CN2CCN(CCc3ccc4c(c3)CCO4)CC2)n1 [CBK305208] | 102 | – |
| O=C1NC2(CCC2)C(=O)N1Cc1coc(-c2cccs2)n1 [CBK305209] | 95.9 | – |
| Cc1cc(F)ccc1S(=O)(=O)NCC1CC(=O)Nc2ccccc21 (centres unmarked) [CBK305210] | 86.5 | – |
| O=C(NCC1(O)CCSCC1)c1ccc2ccccc2n1 [CBK305211] | 85 | – |
| Cc1nc(S(=O)(=O)CCn2cccn2)n(C2CCCCC2)c1C [CBK305217] | 102 | – |

| SMILES | viability at 28.5 h, 10 µM [%] | viability at 28.5 h, 10 µM (bulk resorufin, single well) [%] |
| --- | --- | --- |
| CCCC(=O)Nc1ccc(OCc2ncc(C(C)(C)C)o2)c(C(C)=O)c1 [CBK305218] | 86.2 | – |
| Cn1cc(C(O)CNC(=O)NCCc2csc3ccccc23)cn1 (centres unmarked) [CBK305219] | 95.2 | – |
| CCN(CC(=O)NCc1ccc(F)cc1)C(=O)c1cc(C#N)c[nH]1 [CBK305221] | 87.9 | – |
| CC(C)c1n[nH]c(C2CN(Cc3nc4c(F)cccc4[nH]3)CCO2)n1 (centres unmarked) [CBK305225] | 98.8 | – |
| CN(CC1CC1)C(=O)Cn1cnc2c(F)cc(Br)cc2c1=O [CBK305227] | 87.2 | – |
| O=C(Cn1cnc2c(F)cc(Br)cc2c1=O)N1CCOC2CCCCC21 (centres unmarked) [CBK305229] | 89.2 | – |
| CC(NC(=O)N1CCSCC1)c1cccc(N2CCCC2)c1 (centres unmarked) [CBK305230] | 92 | – |
| Cc1cccn2c(=O)cc(CN3CCn4c(nnc4C4CC4)C3)nc12 [CBK305232] | 102 | – |
| N#Cc1ccc(Cn2cnc(NC(=O)c3cnccn3)n2)cc1 [CBK305233] | 88.5 | – |
| CC(C)c1cccc(-n2cc(O)c(C(=O)NCCC(=O)N(C)C)n2)c1 [CBK305234] | 86.5 | – |
| CCNC(=O)C1(NC(=O)c2cn3ccccc3n2)CCCCC1 [CBK305240] | 102 | – |
| O=C(NCc1cc(Br)ccc1F)C1CC(=O)N(Cc2ccccn2)C1 (centres unmarked) [CBK305242] | 85.7 | – |
| Cc1cc(C(=O)N2CCCC2c2ccc[nH]2)c2c(C)noc2n1 (centres unmarked) [CBK305245] | 91.5 | – |
| O=C(Nc1ncccc1O)c1cnc2c(cnn2C2CCCC2)c1 [CBK305246] | 99.9 | – |
| CCOC(=O)C(CNC(=O)c1cnc(C)c(Br)c1Cl)Cc1ccccc1 (centres unmarked) [CBK305247] | 99.6 | – |
| Cc1nc(CC(=O)Nc2ccc(N3CCOCC3)cn2)cs1 [CBK305251] | 91 | – |
| CS(=O)(=O)NC1CCN(C2CCc3c(Cl)cccc32)CC1 (centres unmarked) [CBK305252] | 93.7 | – |
| Cc1cc(C)n(-c2ccc(N3CCC4(CC3)OCCO4)nn2)n1 [CBK305255] | 97.8 | – |
| O=C(NCCCN1CCc2ccccc2C1)C1CC1c1ccco1 (centres unmarked) [CBK305257] | 91.8 | – |
| CC(NC(=O)CCc1cscn1)c1nc(-c2ccncc2)cs1 (centres unmarked) [CBK305260] | 77.6 | – |
| Cc1ccc(N2CCCN(C(=O)COc3ccccc3F)CC2)nn1 [CBK305261] | 99.4 | – |
| Cc1ccn(-c2ccc(N3CCOC4(CCCC4)C3)nn2)n1 [CBK305262] | 87.9 | – |
| CC(C)(C)OC(=O)N1CCCN(Cc2nnc(-c3ccco3)o2)CC1 [CBK305271] | 103 | – |
